From PMC6356231, “Capillasterin A, a Novel Pyrano[2,3-f]chromene from the Australian Crinoid Capillaster multiradiatus” (Marine Drugs, 2019)
Where two headings read alike, the source gives them in different places. Each block holds one compound with its values, some of them ahead of it.

How the values were obtained:
[1] = tested on: multidrug transporter ABCG2; design: method as in PMID 20627559; settings: cited from earlier work
[2] = tested on: GFP-expressing immortalised mouse olfactory ensheathing cells (mOEC); experiment: mOEC cell proliferation (resazurin viability) assay; assay type: cell-based; settings: 10 µM, 24 hours of treatment
Experimental: Compounds 1–7 have now been added to the Davis Open-Access Compound Library housed at Compounds Australia, Griffith University, where they are available for collaboration in drug discovery or chemical biology research.
The cell proliferation assay was performed according to the method described by Chen et al., with modification. Briefly, GFP-expressing immortalised mouse OECs (mOEC) were seeded at 2000 cells/well in a 384-well microplate (Greiner Bio-One, Kremsmünster, Austria) with a Multidrop™ Combi Reagent Dispenser (Thermo Fisher Scientific, Waltham, MA, USA) using the BioCel Automation System (Agilent Technologies, Santa Clara, CA, USA) and incubated overnight at 37 °C under 5% CO2. After 24 hours, the cells were treated with 4 different concentrations of pure compounds (10, 1, 0.1 and 0.01 µM). 0.2% DMSO was used as negative control. Plates were incubated for 24 hours at 37 °C under 5% CO2. Cell viability of mOECs was measured by adding 5 µL of resazurin (500 μM, Sigma-Aldrich, Sydney, Australia) to the cells and incubated in dark for 4 hours at 37 °C under 5% CO2. The dehydrogenase enzymes found in metabolically active cells will convert resazurin to resofurin products that are soluble in culture medium. The fluorescent resofurin products produced by the viable cells are quantified using an EnVision™ Multilabel (PerkinElmer, Waltham, MA, USA) plate reader at 535/595nm. After that, the cells were fixed and stained with Hoechst (Thermo Fisher Scientific, Waltham, MA, USA) and stored at 4 °C prior to imaging. Cells were imaged automatically using Operetta™ (PerkinElmer, Waltham, MA, USA). Individual cell segmentation and cell count were performed using the Harmony 3.5.2® software.

HIV-1 strain NL4.3 = experiment: multi-cycle HIV-1 replication assay in CEM-GXR GFP-reporter T cells; assay type: cell-based; settings: for EC50: read-out: EC50, in vitro HIV-1 replication; for inhibition of HIV-1 replication (in words): CEM-GXR T cell line
Experimental: The ability of compounds 1–7 to inhibit HIV-1 replication was evaluated in vitro using an established multi-cycle replication assay. Briefly, the CEM-GXR T cell line, which contains an HIV-1 promoter-driven green fluorescent protein (GFP) reporter, was infected with the full-length, infectious HIV-1 strain NL4.3 at a multiplicity of infection of 0.03 [18]. After 24 hours, cells were washed and subsequently incubated with compounds 1–7, the control HIV inhibitor efavirenz, or 0.1% DMSO vehicle control. GFP expression, a marker of viral replication, was then measured by flow cytometry after 72 hours.
(§1) The following reagents were obtained from the NIH AIDS Reagent Program: CEM CD4^+ cells (CEM) from Dr. J.P. Jacobs, [23] and pNL4-3 from M. Martin [24]. Efavirenz and panobinostat were purchased from Sigma-Aldrich (St. Louis, MO, USA). CEM and CEM-derived GXR25 GFP-reporter T cells (CEM-GXR; [18]) were cultured in R10+ medium [RPMI-1640 with HEPES and L-Glutamine (Lonza, Basel, Switzerland), 10% fetal calf serum, 100 U of penicillin/mL, and 100 µg of streptomycin/mL Sigma-Aldrich (St. Louis, MO, USA)]. Production of HIV-1 NL4.3 and multi-cycle HIV-1 replication assays were performed as described previously. Apoptosis assays were performed by staining CEM cells with annexin V-APC (BioLegend, San Diego, CA) according to manufacturer instructions.

CEM cells = experiment: apoptosis (annexin V-APC) cellular toxicity assay in CEM cells; assay type: cell-based; settings: 72 hours
Experimental: Compounds 1–7 were further assessed for cellular toxicity in CEM cells, the parental cell line of CEM-GXR. After 72 hours’ treatment with compounds, toxicity was assessed by measuring the surface expression of the early apoptotic marker annexin V by flow cytometry (by staining with annexin V-APC). […] In contrast, no increase in apoptosis was observed up to 100 µM for compounds 1–7, with the exception of compound 2, which induced 1.4 ± 0.2 and 2.2 ± 0.4-fold increases at 30 and 100 µM, respectively.
as §1

[3] = compound stability (observation); assay type: physicochemical
[4] = Human immunodeficiency virus 1, CEM-GXR T cells, HIV-1 NL4.3, MOI 0.03, GFP by flow cytometry after 72 hours, mean ± s.d. of three independent experiments

SMILES: CCCc1cc(=O)c2c(O)c3c(OC)cc(O)cc3c(OC)c2o1
inhibition of ABCG2 (in words) [1]: inhibit

SMILES: CCCc1cc(=O)c2c(cc(C(C)=O)c3c(OC)cc(=O)oc32)o1 [Compound 1, 5-acetyl-4-methoxy-8-propylpyrano[2,3-f]chromene-2,10-dione]
increase in mOEC viability (in words) [2]: none of the compounds showed a significant increase | EC50 (HIV-1 strain NL4.3; [4]): > 100 µM

SMILES: CCCc1cc(=O)c2c(O)cc3cc(O)cc(OC)c3c2o1 [Compound 2, comaparvin]
fold increase in activity as compared to 5 (HIV-1 strain NL4.3; HIV-1 replication EC50, angular vs linear naphthopyrone): approximately 2.0 fold | EC50 (HIV-1 strain NL4.3; [4]): 7.5 ± 1.7 µM | fold increase in apoptotic cells relative to 0.1% DMSO (CEM cells; 30 µM): 1.4 ± 0.2 fold | fold increase in apoptotic cells relative to 0.1% DMSO (CEM cells; 100 µM): 2.2 ± 0.4 fold

SMILES: COc1cc(O)cc2cc(O)c3c(=O)cc(C)oc3c12 [Compound 3, TMC-256C1]
inhibition of HIV-1 replication (in words) (HIV-1 strain NL4.3): weaker but consistent antiviral activity | fold reduction in activity compared to 2 (HIV-1 strain NL4.3; HIV-1 replication EC50, methyl instead of propyl at C-2): 3.4 fold | EC50 (HIV-1 strain NL4.3; [4]): 25.5 ± 3.4 µM

SMILES: CCCc1cc(=O)c2c(OC)c(OC)c3cc(O)cc(OC)c3c2o1 [Compound 4, 6-methoxycomaparvin-5-methyl ether]
increase in mOEC viability (in words) [2]: none of the compounds showed a significant increase | EC50 (HIV-1 strain NL4.3; [4]): 14.5 ± 5.8 µM

SMILES: CCCc1cc(=O)c2c(O)c3c(OC)cc(O)cc3cc2o1 [Compound 5, 5,8-dihydroxy-6-methoxy-2-propyl-4H-naphtho[2,3-b]pyran-4-one]
EC50 (HIV-1 strain NL4.3; [4]): 15.6 ± 6.5 µM

SMILES: CCCc1cc(=O)c2c(O)c3c(OC)cc(O)cc3c(OC)c2o1 [Compound 6, 5,8-dihydroxy-6,10-dimethoxy-2-propyl-4H-naphtho[2,3-b]pyran-4-one]
EC50 (HIV-1 strain NL4.3; [4]): 20.2 ± 4.9 µM

SMILES: COc1cc(O)cc2cc3oc(C)cc(=O)c3c(O)c12 [Compound 7, TMC-256A1]
increase in mOEC viability (in words) [2]: none of the compounds showed a significant increase | inhibition of HIV-1 replication (in words) (HIV-1 strain NL4.3): no detectable activity | EC50 (HIV-1 strain NL4.3; [4]): > 100 µM

stability (in words) [3]: unstable
SMILES: CCCc1cc(=O)c2c(O)c(OC)c3cc(O)cc(OC)c3c2o1 [Compound 8, 6-methoxycomaparvin]

SMILES: O=C1Nc2ccc(Cl)cc2[C@@](C#CC2CC2)(C(F)(F)F)O1 [Efavirenz, reference compound]
EC50 (HIV-1 strain NL4.3; Human immunodeficiency virus 1, CEM-GXR, 72 h): 0.0025 ± 0.0019 µM

SMILES: COc1cc(O)cc2cc3oc(C)cc(=O)c3c(O)c12 [TMC-256A1]
inhibition of ABCG2 (in words) [1]: inhibit

SMILES: Cc1[nH]c2ccccc2c1CCNCc1ccc(/C=C/C(=O)NO)cc1 [panobinostat, reference compound]
fold increase in apoptotic cells relative to 0.1% DMSO (CEM cells; 3 µM): 4.2 ± 1.8 fold
